Experiments:
Type in all cases: cell-based
H460 cells [1] = experiment: Colony survival assay in H460 cells; conditions: for IC50: Homo sapiens, NCI-H460, Fig 4C, compound 4 h, cisplatin fixed at IC50 added after 2 h, read-out: compound titration with cisplatin at the IC50, colony survival; for fold change in cisplatin IC50 in combination: combination with cisplatin; for effect of compound alone on colony survival: compound titrated alone, 4 h
Experimental: We used H460, NSCLC cells, to first assess the impact on colony survival by knocking down ERCC1-XPF in these cells. […] Next, to assess if colony survival is affected we titrated cisplatin in these cells using a fixed concentration of Hit 1(50 μM) or Hit 2 (25 and 50 μM). […] Next, we assessed cisplatin potentiation by treating cells at a fixed cisplatin concentration (cisplatin IC50 in H460 cells) with Hit 1 or 2 titration (Figure 4C, filled symbols). H460 cells were treated with compound for a total of 4 hours while cisplatin was added to the media after 2 hours of compound pre-treatment. […] We also titrated Hit 1 or Hit 2 alone in these cells and treated for 4 h. […] We also assessed the effects of Hit 2 in another NSCLC cell line (H1299), which was either ERCC1 wildtype (WT) or knockout (KO) (Figure 4E).
Colony survival assay in a total reaction volume of 2.4 mL in a six-well plate Cells were split and seeded at a density of 300-400 format. Cells were transfected for 48 hours after which cells in a 60 mm plate and incubated overnight. The next complete media was added for 24 hours. Cells were day, the cells were treated with a fixed concentration of the seeded for clones and clones were selected using standard compound (Hit 1 or Hit 2) with cisplatin titration. After methods. ERCC1 KO clones were tested for ERCC1 treatment, fresh complete medium with antibiotics was and XPF expression by Western Blot using the ERCC1 added and the cells were then allowed to form colonies. In antibodies, 8F1, FL-297, and D-10 and the XPF antibody another method, the cells were seeded onto 60mm plates 3F2/3 (Santa Cruz).
Validation of genome editing was performed alone or titrated with a fixed concentration of cisplatin by PCR amplification with Taq polymerase (NEB) of (IC50 for the cell line used). Post treatment, the cells were exon 2 within the genomic DNA using the forward allowed to form colonies. Colonies were fixed with 95% primer: 5’ […]
methanol and stained with 0.2 % crystal violet. Colonies 3’ and the reverse primer: 5’ […]
with ≥50 cells were counted using a light microscope. Cell […] 3’. PCR product was cloned […]
survival was expressed as the ratio of average number of into a linearized pCR4-TOPO vector and transformed colonies in drug treated cells versus control cells x 100. into OneShot TOP10 E. coli using the TOPO-TA Cloning The experiment was done in triplicate for each drug Kit for Sequencing (Thermofisher). Bacterial colonies concentration. We have previously published the methods were selected with ampicillin and plasmid was extracted for ERCC1 and XPF knockdowns, which were used as using standard procedures. Plasmid was sequenced by controls. Briefly, cells were seeded onto six-well plates GeneWiz using an M13R primer. Potential sites of off-target editing in coding sequences were identified during
(density 2.5 × 10^5 cells /well) in antibiotic free media. guide RNA design with the Optimized CRISPR Design Two transfections were done at 24 h interval in each cell Tool. Primers were designed to amplify the exons line to knockdown ERCC1-XPF together according to containing the potential off-target sites and PCR product the manufacturer ’s (Dharmacon’s smartpools) protocol. was sequenced by GeneWiz. A list of specific off-target Addition of lipid reagent (Dharmafect 2, Dharmacon) sites and primers used to assess these off-target effects are […]

H460 cells [2] = experiment: Cisplatin intrastrand adduct repair by ELISA; conditions: 72 hours (last time point), compound 15 μM 2 h then cisplatin at IC90 2 h; relative to 0 hour
ERCC1 protein = experiment: Western blot of ERCC1 protein stability; conditions: 50 μM, 24, 48 and 72 hours, compared to cisplatin control treatment
Experimental: In order to study if the compounds' inhibitory activity of ERCC1-XPF incision is due to inhibition of DNA binding ability, we performed EMSAs. One possibility for ERCC1-XPF enzyme inhibition is via inhibition of the ERCC1-XPF binding to DNA. In this assay, we incubated the titrated Hit 1 or 2 respectively with purified ERCC1-XPF on ice and reactions were initiated by the addition of the 5'-[^32P] radiolabeled DNA substrate 37°C. The samples were separated on a 10% native gel and the products were visualized via phosphorimager analysis. […] If these compounds were affecting the protein-protein interaction between ERCC1 and XPF, we would expect to observe loss of protein following treatment similar to what we have observed with ERCC1 and XPF knockdowns.
Supplementary Figure S3: A. Analysis of 16168 and 143099 on XPG incision activity. Compounds were titrated and inhibition of
XPG incision activity was quantified for 16168 (open circles) or 143099 (filled circles). The results are presented as the mean ± SEM of 3
independent experiments. B. Western bots assessing ERCC1 protein stability following cisplatin (IC50 concentration), 143099 (50 μM) and […]

| Compound | IC50 (H460 cells [1]) [µM] | fold change in cisplatin IC50 in combination (H460 cells [1]) | effect of compound alone on colony survival (H460 cells [1]) | intrastrand adducts remaining (H460 cells [2]) | effect on ERCC1 protein levels (ERCC1 protein) |
| --- | --- | --- | --- | --- | --- |
| Oc1cc(O)c2c(c1)OC(c1ccc(O)c(O)c1)C(O)C2c1c(O)cc(O)c2c1OC(c1ccc(O)c(O)c1)C(O)C2 (stereo not shown) [NSC143099] | 15 | ~ 3 fold | no effect on colony survival | ~ 65% | neither Hit 1 nor Hit 2 affects ERCC1 protein levels |
| Cc1ccc(S(=O)(=O)Oc2cc(S(=O)(=O)O)cc3cc(S(=O)(=O)O)cc(N)c23)cc1 [NSC16168] | 4 | ~ 3 fold | no effect on colony survival | ~ 60% | neither Hit 1 nor Hit 2 affects ERCC1 protein levels |

Reference: paper PMC5342726, “Identification of small molecule inhibitors of ERCC1-XPF that inhibit DNA repair and potentiate cisplatin efficacy in cancer cells” (Oncotarget, 2016)
